Data published in ChEMBL document CHEMBL3621038, “Structure-Affinity Relationship Analysis of Selective FKBP51 Ligands” (J Med Chem, 2015).

Columns and labels:
[1] = target: T1, Peptidyl-prolyl cis-trans isomerase FKBP4 (Homo sapiens, UniProt Q02790); assay: Binding affinity to FKBP52 (unknown origin) by competitive fluorescence polarization assay
T1 sequence (Q02790 whole entry): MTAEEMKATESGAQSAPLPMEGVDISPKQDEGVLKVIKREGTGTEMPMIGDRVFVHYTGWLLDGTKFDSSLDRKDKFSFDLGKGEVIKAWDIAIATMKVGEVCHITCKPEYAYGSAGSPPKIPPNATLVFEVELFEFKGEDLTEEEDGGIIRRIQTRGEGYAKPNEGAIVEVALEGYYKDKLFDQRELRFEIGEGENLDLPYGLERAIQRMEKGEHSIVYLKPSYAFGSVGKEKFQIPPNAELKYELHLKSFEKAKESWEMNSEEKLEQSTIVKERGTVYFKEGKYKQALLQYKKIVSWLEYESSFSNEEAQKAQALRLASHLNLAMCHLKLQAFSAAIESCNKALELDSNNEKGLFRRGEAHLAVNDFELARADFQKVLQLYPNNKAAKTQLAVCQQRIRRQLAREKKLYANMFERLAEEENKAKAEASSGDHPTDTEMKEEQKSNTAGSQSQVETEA

[2] = target: T2, Peptidyl-prolyl cis-trans isomerase FKBP5 (Homo sapiens, UniProt Q13451)
T2 sequence (Q13451 whole entry): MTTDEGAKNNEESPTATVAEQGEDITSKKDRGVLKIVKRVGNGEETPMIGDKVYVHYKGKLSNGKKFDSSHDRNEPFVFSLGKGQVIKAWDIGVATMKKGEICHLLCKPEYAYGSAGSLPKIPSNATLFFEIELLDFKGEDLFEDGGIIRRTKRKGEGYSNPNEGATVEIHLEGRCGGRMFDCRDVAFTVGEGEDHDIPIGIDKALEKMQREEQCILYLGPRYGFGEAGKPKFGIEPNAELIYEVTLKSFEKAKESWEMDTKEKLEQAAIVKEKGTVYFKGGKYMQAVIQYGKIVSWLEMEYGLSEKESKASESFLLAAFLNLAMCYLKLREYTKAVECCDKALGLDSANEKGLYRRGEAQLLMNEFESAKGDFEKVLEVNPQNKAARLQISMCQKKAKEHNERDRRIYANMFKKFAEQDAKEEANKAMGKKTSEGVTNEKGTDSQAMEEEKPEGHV

[3] = target: Peptidyl-prolyl cis-trans isomerase FKBP1A (Homo sapiens, UniProt P62942); assay: Binding affinity to FKBP12 (unknown origin) by competitive fluorescence polarization assay
Peptidyl-prolyl cis-trans isomerase FKBP1A, sequence (P62942 whole entry): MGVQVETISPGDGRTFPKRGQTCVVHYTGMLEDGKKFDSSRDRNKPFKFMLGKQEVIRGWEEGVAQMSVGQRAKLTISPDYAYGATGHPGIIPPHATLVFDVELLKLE

| Ki [1] [µM] | Ki [2] [µM] | Ki [3] [µM] | Compound |
| --- | --- | --- | --- |
| > 50 | 0.004 | 0.09 | COc1ccc(CC[C@@H](OC(=O)[C@@H]2CCCCN2C(=O)[C@H](c2cc(OC)c(OC)c(OC)c2)C2CCCCC2)c2cccc(OCC(=O)O)c2)cc1OC |
| > 100 | 0.16 | 1.2 | COc1cccc([C@@H](C(=O)N2CCCC[C@H]2C(=O)O[C@H](CCc2ccc(OC)c(OC)c2)c2cccc(OCC(=O)O)c2)C2CCCCC2)c1 |
| 9.7 |  | 0.3 | COc1ccc(CC[C@@H](OC(=O)[C@@H]2CCCCN2C(=O)CC2CCCCC2)c2cccc(OCC(=O)O)c2)cc1OC |
| > 50 | 0.11 | 0.6 | COc1cc(OC)cc([C@@H](C(=O)N2CCCC[C@H]2C(=O)O[C@H](CCc2ccc(OC)c(OC)c2)c2cccc(OCC(=O)O)c2)C2CCCCC2)c1 |
